Values quoted from earlier work, collected in US20260108502A1, “ORAL DELIVERY FORMULATIONS USING SELF EMULSIFYING GRANULES AND LIPID BASED GRANULES” (BOARD OF REGENTS, THE UNIVERSITY OF TEXAS SYSTEM, priority 2024, published 2026).

Structure (SMILES): CC(C)c1nc(CN(C)C(=O)N[C@H](C(=O)N[C@@H](Cc2ccccc2)C[C@H](O)[C@H](Cc2ccccc2)NC(=O)OCc2cncs2)C(C)C)cs1 [Ritonavir]
- strongest basic pKa: 2.84
